The source of these data is patent US20230330254A1 (Regeneron Pharmaceuticals, Inc., priority 2022, published 2023).

*1 amine or outer side, *2 acyl side, *3 side chain or, on linkers, in order; H or OH if unused. Where a SMILES comes first, the peptide text is derived from it. Side-chain parts run from the residue outwards. [ ]: non-standard residue; d: D form. The star is where a group is joined. PEG24 = NCCOCCOCCOCCOCCOCCOCCOCCOCCOCCOCCOCCOCCOCCOCCOCCOCCOCCOCCOCCOCCOCCOCCOCCOCCC(=O)O; Bip(2'-Et-4'-O(CH2)4NH2) = CCc1cc(OCCCCN[*:3])ccc1-c1ccc(C[C@H](N[*:1])C(=O)[*:2])cc1; Malonyl(2,2-Me2,histaminyl) = CC(C)(C(=O)NCCc1cnc[nH]1)C(=O)*; Nva(5-(3,5-Me2Ph)) = Cc1cc(C)cc(CCC[C@H](N)C(=O)O)c1; Ala(1H-tetrazol-5-yl) = N[C@@H](Cc1nnn[nH]1)C(=O)O; αMePhe(2-F) = C[C@](N)(Cc1ccccc1F)C(=O)O; DBCO = C1#Cc2ccccc2N(*)Cc2ccccc21; Suc = O=C(CCC(=O)[*:2])[*:1] Where only a bound is given, the exact number is not on record here.

The test system of series [1] is HEK293/CRE-Luc cells. Briefly: Luciferase reporter assay, HEK293/CRE-Luc cells without hGLP1R (Example 11). As to conditions: Table 11; Experiment A; no hGLP1R expression. In kind it is cell-based, human. Put shortly: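 Counter-screen in HEK293 cells carrying CRE-driven firefly luciferase without hGLP1R; 3-fold serial dilutions of payloads or linker-payloads at 0.2% final DMSO, 4–6 h.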
(In general: Reporter assays use an easily measured gene product as a stand-in for the process of interest.)

The subject of series [2] is HEK293/CRE-Luc cells. The experiment in a line: Luciferase reporter assay, HEK293/CRE-Luc cells without GLP1R (Example 17). In kind it is cell-based, human. As to conditions: HEK293/CRE-Luc cells without hGLP1R, payloads and linker-payloads; for EC50: read-out: EC50. The method, boiled down:
(§1)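 HEK293 cells carrying a CRE-driven firefly luciferase reporter were exposed to 3-fold serial dilutions of payloads or linker-payloads (12 points, 0.2% DMSO final) for 4–6 h, then luminescence was read. EC50 came from a four-parameter logistic fit; S/N is top RLU over untreated wells, and relative potency and S/N are referenced to M2361.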

The target of series [3] is T1, human GLP1R (Homo sapiens, UniProt P43220). The experiment in a line: CRE-luciferase reporter assay, HEK293/Myc-hGLP1R/Cre-Luc (Example 9). In kind it is cell-based. Also on record: engineered to express full-length human GLP1R, cynomolgus GLP1R; expressed in transfected cells; host or cells: HEK293/CRE-Luc. The following applies: Table 9; 5.5 h; read-out: HEK293/Myc-hGLP1R/Cre-Luc EC50. How it is done:
To test the activity of GLP1R agonist payloads and GLP1R agonist linker-payloads (LPs) in vitro, a cell-based cAMP responsive luciferase reporter assay was developed.
Cells were incubated overnight at 37° C. in 5% CO2. […] Plates were incubated for 5.5 h at 37° C. in 5% CO2. For end-point measurement, 100 μL/well of One-Glo reagent (Promega, #E6051) was added and plates were kept at room temperature for 5-10 minutes. Luciferase activity was measured on Envision Multilabel Plate Reader (Perkin Elmer) in Luminescent mode. The relative light units (RLU) values were obtained and the results were analyzed using nonlinear regression with GraphPad Prism software (GraphPad).

In series [4] the target is T1, human GLP1R. Briefly: Luciferase reporter assay, HEK293/CRE-Luc/hGLP1R cells (Example 11). It is filed as cell-based. Also on record: engineered to express full-length human GLP1R, cynomolgus GLP1R; expressed in transfected cells; host or cells: HEK293/CRE-Luc. As to conditions: Table 11; Experiment A.
The target in series [5] is T1, human GLP1R. The experiment in a line: Luciferase reporter assay, HEK293/CRE-Luc/hGLP1R (Example 17). It is filed as cell-based. The arrangement: engineered to express full-length human GLP1R, cynomolgus GLP1R; expressed in transfected cells; host or cells: HEK293/CRE-Luc. The following applies: HEK293/CRE-Luc/hGLP1R; for S/N: highest RLU / RLU of untreated wells; for Relative Potency (% M2361 EC50) / Relative Signal:Noise (% M2361): relative to M2361 of the same experiment. The method, boiled down: as §1

A short description of series [6]: Plasma stability of payloads and linker-payloads, human plasma. As to conditions: 2 μM, 37° C., read-out: Human plasma stability assay T½ (converted). It is filed as in vitro ADME. Put shortly:
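Pooled plasma, pH adjusted to 7.4±0.1 where needed, spiked to 2 μM compound (duplicate) and incubated at 37 °C. At each time point, protein was precipitated with ACN/MeOH stop solution containing internal standards; remaining compound quantified in supernatant by LC-MS/MS.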

Series [7] can be described thus: Plasma stability of payloads and linker-payloads, mouse plasma. It is filed as in vitro ADME. As to conditions: for half-life at 2 µM: mouse, pooled plasma. The procedure:
The plasma stability of payloads and linker payloads of the disclosure were measured. For the assay, pooled frozen plasma (human, mouse or monkey) was thawed in cold water or a 37° C. water bath prior to experiment. Plasma was centrifuged at 4000 rpm for 5 min if any clots were observed, they were subsequently removed. If required, the pH was adjusted to 7.4±0.1. For the preparation of compounds and positive controls, a 1 mM intermediate solution was prepared by diluting 10 μL of their stock solution with 90 μL DMSO; a 1 mM intermediate solution of the positive control (Propantheline) was prepared by diluting 10 μL of its stock solution with 90 μL ultrapure water. Subsequently, 100 μM dosing solution for each compound was prepared by diluting 20 μL of the intermediate solution (1 mM) with 180 μL 45% MeOH/H2O. 98 μL of plasma was spiked with 2 μL of dosing solution (100 μM) to achieve the final concentration of 2 μM in duplicate. Samples were then incubated at 37° C. in a water bath. […] At each time point, 400 μL of stop solution (200 ng/mL tolbutamide plus 200 ng/mL labetalol in 50% ACN/MeOH) was added to precipitate protein and mixed thoroughly. Sample plates were then centrifuged at 4,000 rpm for 10 min. An aliquot of supernatant (50 μL) was transferred from each well and mixed with 100 μL ultrapure water. The samples were then shaken at 800 rpm for approximately 10 min before submitting for LC-MS/MS analysis.

Series [8] deals with T1, human GLP1R. Briefly: Human GLP1R cAMP accumulation assay. It is filed as cell-based. The arrangement: HEK293 cells over-expressing full length human GLP-1R were utilized; expressed in transfected cells; host or cells: HEK293 (HEK293/hGLP1R). The method, boiled down: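 cAMP accumulation measured after 30 min at 23° C, with 500 μM IBMX in HEPES-buffered HBSS plus 0.1% BSA, in HEK293 cells expressing full-length hGLP-1R. Levels read by D2-cAMP/antibody immunoassay via standard curve, scaled between low and high controls. EC50 fitted four-parameter over a 10-point curve.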
For orientation: Cyclic AMP is a second messenger, typically raised through Gs and lowered through Gi signalling.

The nature of series [9]: Plasma stability of payloads (t½).
Series [10] is described as follows: Liver microsome stability. It is filed as in vitro ADME, human. As to conditions: human, microsomes, Table 7. How it is done:
To assess the in vitro ADME properties of the LP, microsomal stability assay was performed to determine intrinsic clearance, and plasma protein binding assay was performed to understand the distribution potential.
In general terms: Liver microsomes are a subcellular fraction often used to study metabolism.

Series [11] is described as follows: Plasma protein binding (equilibrium dialysis). In kind it is in vitro ADME, human. The following applies: Human Plasma; 4 hours dialysis. The procedure: The pH value of the resulting plasma was checked
(<http://www.htdialysis.com/>).
DMSO working solutions were prepared at 400 μM. […] These samples were transferred into new 96-well plates.

T1 sequence (P43220 24-463): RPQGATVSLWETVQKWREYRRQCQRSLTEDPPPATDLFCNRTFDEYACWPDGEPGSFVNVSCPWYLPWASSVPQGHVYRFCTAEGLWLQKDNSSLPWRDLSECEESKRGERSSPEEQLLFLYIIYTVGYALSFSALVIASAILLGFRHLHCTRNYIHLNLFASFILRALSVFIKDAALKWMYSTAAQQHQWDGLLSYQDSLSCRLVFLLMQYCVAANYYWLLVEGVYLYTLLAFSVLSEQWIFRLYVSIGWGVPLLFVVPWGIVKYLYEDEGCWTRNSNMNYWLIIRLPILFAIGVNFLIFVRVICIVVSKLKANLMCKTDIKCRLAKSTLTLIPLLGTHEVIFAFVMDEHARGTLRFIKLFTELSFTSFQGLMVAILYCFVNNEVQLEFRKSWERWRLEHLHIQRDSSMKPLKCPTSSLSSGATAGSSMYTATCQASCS

Consider `CCc1cc(OCCCCNC(=O)CCOCCOCCOCCOCCOCCOCCOCCOCCOCCOCCOCCOCCOCCOCCOCCOCCOCCOCCOCCOCCOCCOCCOCCOCCNC(=O)CCC(=O)N2Cc3ccccc3C#Cc3ccccc32)ccc1-c1ccc(C[C@H](NC(=O)[C@H](CC(=O)O)NC(=O)[C@H](CO)NC(=O)[C@@H](NC(=O)[C@](C)(Cc2ccccc2F)NC(=O)[C@@H](NC(=O)CNC(=O)[C@H](Cc2nn[nH]n2)NC(=O)C(C)(C)C(=O)NCCc2cnc[nH]2)[C@@H](C)O)[C@@H](C)O)C(=O)N[C@@H](CCCc2cc(C)cc(C)c2)C(N)=O)cc1` [LP4, DIBAC-suc-PEG24-P9] ({Malonyl(2,2-Me2,histaminyl)}-[Ala(1H-tetrazol-5-yl)]GT[αMePhe(2-F)]TSD[Bip(2'-Et-4'-O(CH2)4NH2)]([PEG24-Suc-DBCO])[Nva(5-(3,5-Me2Ph))]-NH2), for which, in the series on HEK293/CRE-Luc cells [1], the EC50 was over 200 nM and the “HEK293/CRE-LUC S/N” value was 1.7. Further, in the series with HEK293/CRE-Luc cells [2], the S/N amounted to 1.7 and the EC50 was over 200 nM. On human GLP1R [3], the EC50 was 0.0715 nM. On human GLP1R [4], the EC50 amounted to 0.127 nM, the “HEK293/CRE-LUC/hGLP1R Relative Potency (% P8 EC50)” value is on record as 4.2% and the “HEK293/CRE-LUC/hGLP1R S/N” value was 63.8. Also, on human GLP1R [5], the S/N worked out at 63.8, the “Relative Potency (% M2361 EC50)” value came to 4.2% and the “Relative Signal:Noise (% M2361)” value is recorded as 97.1%.

Regarding `CCc1cc(OC)ccc1-c1ccc(C[C@H](NC(=O)[C@H](CC(=O)O)NC(=O)[C@H](CO)NC(=O)[C@@H](NC(=O)[C@](C)(Cc2ccccc2F)NC(=O)[C@@H](NC(=O)CNC(=O)[C@H](Cc2nn[nH]n2)NC(=O)C(C)(C)C(=O)NCCc2cnc[nH]2)[C@@H](C)O)[C@@H](C)O)C(=O)N[C@@H](CCCc2ccc(OCCCCNC(=O)CCOCCOCCOCCOCCOCCOCCOCCOCCOCCOCCOCCOCCOCCOCCOCCOCCOCCOCCOCCOCCOCCOCCOCCOCCNC(=O)CCC(=O)N3Cc4ccccc4-c4c(nnn4CC4OC5OC6C(CO)OC(OC7C(CO)OC(OC8C(CO)OC(OC9C(CO)OC(OC%10C(CO)OC(OC4C(O)C5O)C(O)C%10O)C(O)C9O)C(O)C8O)C(O)C7O)C(O)C6O)-c4ccccc43)cc2)C(N)=O)cc1` (stereo partly drawn) [LP23, cyclo-dex-trin-triazole-DIBAC-suc-PEG24-P24], the half-life at 2 µM is over 4.8 h in series [6] (pooled plasma, pH 7.4, tested time B (2 hrs per footnote)); over 4 h in series [7] (pH 7.4, Mouse, assay time 2 hr, Table 5B, read-out: plasma stability T½); over 4.8 h in series [7] (pH 7.4, Table 5A, mouse plasma, tested time B (2 hrs), read-out: plasma stability T½ (hr), mouse). In addition, in series [7] (Mouse, assay time 2 hr, Table 5B), the “plasma stability T½” value is over 4 h. The molecule further had an EC50 at human GLP1R [8] of 0.534 nM.

In the case of `CCc1cc(OCCCCN)ccc1-c1ccc(C[C@H](NC(=O)[C@H](CC(=O)O)NC(=O)[C@H](CO)NC(=O)[C@@H](NC(=O)[C@](C)(Cc2ccccc2F)NC(=O)[C@@H](NC(=O)CNC(=O)[C@H](CCC(N)=O)NC(=O)C(C)(C)C(=O)NCCc2cnc[nH]2)[C@@H](C)O)[C@@H](C)O)C(=O)N[C@@H](CCCc2cc(C)cc(C)c2)C(N)=O)cc1` [P21], the half-life at 2 µM in series [6] (plasma, pH 7.4, tested time C (3 days)) is over 173 h. Also, in the series with HEK293/CRE-Luc cells [1], the EC50 is over 200 nM and the “HEK293/CRE-LUC S/N” value amounted to 1.3. Also, in the series with HEK293/CRE-Luc cells [2], the S/N was determined as 1.3 and the EC50 is over 200 nM. Further, the “Plasma stability t½” value in series [9] is over 57.8 h. Also, at human GLP1R [4], the EC50 was 0.738 nM, the “HEK293/CRE-LUC/hGLP1R Relative Potency (% P8 EC50)” value was determined as 0.7% and the “HEK293/CRE-LUC/hGLP1R S/N” value came out at 58.8. In addition, at human GLP1R [5], the S/N came to 58.8, the “Relative Potency (% M2361 EC50)” value was found to be 0.7% and the “Relative Signal:Noise (% M2361)” value was 89.5%. Moreover, the EC50 at human GLP1R [5] (payloads and linker-payloads, experiments A-E, M2361 repeated in each, read-out: EC50) worked out at 0.738 nM. Moreover, the EC50 on human GLP1R [8] (HEK293/hGLP1R cells, Table 4, read-out: cAMP EC50) came to 0.427 nM.

For the molecule `C[C@]12CC[C@H]3[C@@H](CCC4=CC(=O)CC[C@@]43C)[C@@H]1CC[C@@H]2O` [Testosterone], in series [10] (read-out: CLint(liver)), the CLint scaled is 77.2 mL/min/kg. Also, in series [10] (read-out: CLint(mic)), the microsomal CLint is 85.7 µL/min/mg.

Molecule `CC(=O)CC(c1ccccc1)c1c(O)c2ccccc2oc1=O` (stereo not drawn) [Warfarin] registered a recovery at 4 h, 2 µM in [11] of 98.3%.
